These are literature values, as cited in patent US9386793B2, “Compositions and methods for treating obesity and related disorders by characterizing and restoring mammalian bacterial microbiota” (New York University, priority 2010, dated 2016).

Series [1] deals with Coprobacillus. More on the design: key: + facilitates growth; w weak growth promotion; +/− growth variable dependent on strain; − no growth effect. As to conditions: substrate for fermentation.
Series [2] deals with Clostridium cocleatum. More on the design: key: + facilitates growth; w weak growth promotion; +/− growth variable dependent on strain; − no growth effect. As to conditions: substrate for fermentation.
The subject of series [3] is Johnsonella. Further details: key: + facilitates growth; w weak growth promotion; +/− growth variable dependent on strain; − no growth effect. As to conditions: substrate for fermentation.
Series [4] concerns Holdemania. More on the design: key: + facilitates growth; w weak growth promotion; +/− growth variable dependent on strain; − no growth effect. As to conditions: substrate for fermentation.
Series [5] deals with Oscillibacter. More on the design: key: + facilitates growth; w weak growth promotion; +/− growth variable dependent on strain; − no growth effect. As to conditions: substrate for fermentation.
Series [6] concerns Sporacetegenium. Further details: key: + facilitates growth; w weak growth promotion; +/− growth variable dependent on strain; − no growth effect. As to conditions: substrate for fermentation.
The subject of series [7] is Coprobacillus, Sporacetigenium, Holdemania, or Clostridium cocleatum. As to conditions: but not of Johnsonella and Oscillibacter.

As for `O=C[C@@H](O)[C@H](O)[C@H](O)CO` [Arabinose], the “growth of Coprobacillus” value in series [1] is given as “−”. In series [2], the “growth of Clostridium cocleatum” value is given as “−”. In addition, in series [3], the “growth of Johnsonella” value is on record as “−”. Besides, the “growth of Holdemania” value in series [4] is listed as “w”. Also, the “growth of Oscillibacter” value in series [5] is given as “+/−^a”. The “growth of Sporacetegenium” value in series [6] is “+”.
Regarding `O=C[C@H](O)[C@@H](O)[C@H](O[C@@H]1O[C@H](CO)[C@@H](O)[C@H](O)[C@H]1O)[C@H](O)CO` [Cellobiose], the “growth of Coprobacillus” value in series [1] is on record as “+”. Besides, in series [7], the “growth and metabolic activity of genera (as follows from Table 1)” value (shortened to “growth and metabolic activity of genera”) is “stimulate growth and metabolic activity of two or more genera”. For the same compound, in series [2], the “growth of Clostridium cocleatum” value is recorded as “+”. In series [3], the “growth of Johnsonella” value is given as “−”. The “growth of Holdemania” value in series [4] was “w”. Besides, the “growth of Oscillibacter” value in series [5] was “−”. The “growth of Sporacetegenium” value in series [6] is listed as “w”.
In the case of `O=C[C@@H](O)[C@H](O)[C@H](O)CO` [D-arabinose], the “growth of Oscillibacter” value in series [5] was “−”.
With `O=c1ccc2cc(O[C@@H]3O[C@H](CO)[C@@H](O)[C@H](O)[C@H]3O)c(O)cc2o1` [Esculin], the “growth of Coprobacillus” value in series [1] is “−”. For the same compound, in series [3], the “growth of Johnsonella” value is “−”. For the same compound, in series [4], the “growth of Holdemania” value is reported as “+”.
In the case of `O=C(CO)[C@@H](O)[C@H](O)[C@H](O)CO` [Fructose], in series [1], the “growth of Coprobacillus” value is “+”. The “growth and metabolic activity of genera” value in series [7] is “stimulate growth and metabolic activity of two or more genera”. Moreover, the “growth of Clostridium cocleatum” value in series [2] is “+”. The “growth of Johnsonella” value in series [3] is given as “−”. The “growth of Holdemania” value in series [4] is recorded as “+”. Also, the “growth of Oscillibacter” value in series [5] was “−”. In series [6], the “growth of Sporacetegenium” value is “+”.
For `O=C[C@H](O)[C@@H](O)[C@@H](O)[C@H](O)CO` [Galactose], the “growth of Coprobacillus” value in series [1] is given as “+”. Also, in series [7], the “growth and metabolic activity of genera” value was “stimulate growth and metabolic activity of two or more genera”. The “growth of Clostridium cocleatum” value in series [2] is “+”. Also, in series [5], the “growth of Oscillibacter” value is reported as “−”. Also, the “growth of Sporacetegenium” value in series [6] is listed as “w”.
`O=C[C@H](O)[C@@H](O)[C@@H](O)CO` [L-arabinose]: in series [5], the “growth of Oscillibacter” value was “+”.
For `OC[C@H]1O[C@@H](O[C@H]2[C@H](O)[C@@H](O)C(O)O[C@@H]2CO)[C@H](O)[C@@H](O)[C@H]1O` (stereo partly shown) [Lactose], the “growth of Coprobacillus” value in series [1] is listed as “+”. In series [7], the “growth and metabolic activity of genera” value was “stimulate growth and metabolic activity of two or more genera”. Further, the “growth of Clostridium cocleatum” value in series [2] is reported as “+”. Besides, the “growth of Johnsonella” value in series [3] is “−”. In addition, in series [4], the “growth of Holdemania” value is on record as “+”. The “growth of Oscillibacter” value in series [5] is “−”. In addition, in series [6], the “growth of Sporacetegenium” value is reported as “w”.
For the compound `OC[C@H]1O[C@H](O[C@H]2[C@H](O)[C@@H](O)[C@H](O)O[C@@H]2CO)[C@H](O)[C@@H](O)[C@@H]1O` [Maltose], the “growth of Coprobacillus” value in series [1] is “+”. For the same compound, the “growth and metabolic activity of genera” value in series [7] is “stimulate growth and metabolic activity of two or more genera”. In addition, the “growth of Clostridium cocleatum” value in series [2] is “+”. For the same compound, the “growth of Johnsonella” value in series [3] is given as “−”. The “growth of Holdemania” value in series [4] was “+”. Moreover, the “growth of Oscillibacter” value in series [5] is listed as “−”. In series [6], the “growth of Sporacetegenium” value is “+”.
Regarding `OC[C@H]1O[C@H](OCC2O[C@@H](O)[C@H](O)[C@@H](O)[C@@H]2O)[C@H](O)[C@@H](O)[C@H]1O` (stereo partly shown) [Mellibiose], in series [7], the “growth and metabolic activity of genera” value is “stimulate growth and metabolic activity of two or more genera”. The “growth of Clostridium cocleatum” value in series [2] is reported as “+”. In addition, the “growth of Johnsonella” value in series [3] was “−”. Moreover, in series [4], the “growth of Holdemania” value is “w”. Also, the “growth of Oscillibacter” value in series [5] was “−”. In addition, in series [6], the “growth of Sporacetegenium” value is recorded as “w”.
Turning to `OC[C@H]1O[C@H](OC[C@H]2O[C@H](O[C@]3(CO)O[C@H](CO)[C@@H](O)[C@@H]3O)[C@H](O)[C@@H](O)[C@@H]2O)[C@H](O)[C@@H](O)[C@H]1O` [Raffinose], in series [1], the “growth of Coprobacillus” value is reported as “−”. In addition, the “growth and metabolic activity of genera” value in series [7] was “stimulate growth and metabolic activity of two or more genera”. Moreover, the “growth of Clostridium cocleatum” value in series [2] is given as “+”. Besides, the “growth of Johnsonella” value in series [3] was “−”. Also, the “growth of Holdemania” value in series [4] was “w”. In addition, the “growth of Oscillibacter” value in series [5] is given as “−”. Also, the “growth of Sporacetegenium” value in series [6] was “w”.
For the compound `C[C@H](O)[C@H](O)[C@@H](O)[C@@H](O)C=O` [Rhamnose], the “growth of Coprobacillus” value in series [1] was “−”. The “growth of Clostridium cocleatum” value in series [2] is given as “−”. Moreover, the “growth of Johnsonella” value in series [3] was “−”. Moreover, the “growth of Holdemania” value in series [4] was “w”. In series [5], the “growth of Oscillibacter” value is “−”. In series [6], the “growth of Sporacetegenium” value is “w”.
On to `O=C[C@H](O)[C@H](O)[C@H](O)CO` [Ribose], for which the “growth of Coprobacillus” value in series [1] is “−”. For the same compound, the “growth of Clostridium cocleatum” value in series [2] is “−”. Also, the “growth of Johnsonella” value in series [3] is “−”. Moreover, the “growth of Holdemania” value in series [4] was “w”. The “growth of Oscillibacter” value in series [5] is reported as “+”. Further, the “growth of Sporacetegenium” value in series [6] is “+/−”.
As for `OCc1ccccc1O[C@@H]1O[C@H](CO)[C@@H](O)[C@H](O)[C@H]1O` [Salicin], the “growth of Coprobacillus” value in series [1] is reported as “+”. The “growth and metabolic activity of genera” value in series [7] is “stimulate growth and metabolic activity of two or more genera”. In series [2], the “growth of Clostridium cocleatum” value is given as “w”. Also, the “growth of Johnsonella” value in series [3] is on record as “−”. Further, the “growth of Holdemania” value in series [4] is listed as “+”. The “growth of Oscillibacter” value in series [5] was “−”. Besides, in series [6], the “growth of Sporacetegenium” value is given as “−”.
For `OC[C@H]1O[C@@](CO)(O[C@H]2O[C@H](CO)[C@@H](O)[C@H](O)[C@H]2O)[C@@H](O)[C@@H]1O` [Sucrose], in series [1], the “growth of Coprobacillus” value is recorded as “+”. For the same compound, the “growth and metabolic activity of genera” value in series [7] was “stimulate growth and metabolic activity of two or more genera”. Besides, the “growth of Clostridium cocleatum” value in series [2] was “+”. In addition, in series [3], the “growth of Johnsonella” value was “−”. Besides, in series [4], the “growth of Holdemania” value is on record as “+”. Also, the “growth of Oscillibacter” value in series [5] is reported as “−”. For the same compound, the “growth of Sporacetegenium” value in series [6] is listed as “w”.
Turning to `OC[C@H]1O[C@H](O[C@H]2O[C@H](CO)[C@@H](O)[C@H](O)[C@H]2O)[C@H](O)[C@@H](O)[C@@H]1O` [Trehalose], the “growth of Coprobacillus” value in series [1] was “+”. For the same compound, in series [7], the “growth and metabolic activity of genera” value is “stimulate growth and metabolic activity of two or more genera”. The “growth of Clostridium cocleatum” value in series [2] is given as “−”. Further, the “growth of Johnsonella” value in series [3] is reported as “−”. Also, the “growth of Holdemania” value in series [4] is on record as “w”. Also, the “growth of Oscillibacter” value in series [5] is on record as “−”. For the same compound, the “growth of Sporacetegenium” value in series [6] was “w”.
As for `O=C[C@H](O)[C@@H](O)[C@H](O)CO` [Xylose], the “growth of Coprobacillus” value in series [1] was “−”. In addition, the “growth of Clostridium cocleatum” value in series [2] is “−”. In addition, the “growth of Johnsonella” value in series [3] was “−”. The “growth of Holdemania” value in series [4] is recorded as “w”. The “growth of Oscillibacter” value in series [5] is listed as “+”. Also, the “growth of Sporacetegenium” value in series [6] is “+”.
For the compound Inulin, in series [2], the “growth of Clostridium cocleatum” value was “+”.
